In patent US8853125B2, “Pyrazole compounds for controlling invertebrate pests” (BASF SE, priority 2008, dated 2014):

Legend:
Assay type in all cases: in vivo
[1] = tested on: Vetch Aphid (Megoura viciae); assay: Vetch aphid, bean leaf disks in microtiterplates; conditions: foliar, 144 h
Procedure: The active compounds were formulated in 1:3 (vol:vol) DMSO:water with different concentrations of formulated compounds.
Bean leaf disks were placed into microtiterplates filled with 0.8% agar-agar and 2.5 ppm OPUS™. The leaf disks were sprayed with 2.5 μl of the test solution and 5 to 8 adult aphids were placed into the microtiterplates which were then closed and kept at 23±1° C. and 50±5% relative humidity under fluorescent light for 6 days. Mortality was assessed on the basis of vital, reproduced aphids. Aphid mortality and fecundity was then visually assessed.

[2] = tested on: Cowpea Aphid (aphis craccivora); assay: Cowpea aphid, sprayed potted cowpea plants; conditions: read-out: mortality in comparison with untreated controls
Procedure: The active compounds were formulated in 50:50 (vol:vol) acetone:water. The test solution was prepared at the day of use.
Potted cowpea plants colonized with 100-150 aphids of various stages were sprayed after the pest population had been recorded. Population reduction was assessed after 24, 72, and 120 hours.

[3] = tested on: Green Peach Aphid (Myzus persicae, Mixed Life Stages); assay: Green peach aphid, method a (leaf dip, pepper plants); conditions: foliar, 120 h, read-out: mortality in comparison with untreated controls
Excerpt: (§1) The active compounds were formulated in 50:50 (vol:vol) acetone:water and 100 ppm Kinetica™ surfactant.
Pepper plants in the 2nd leaf-pair stage (variety ‘California Wonder’) were infested with approximately 40 laboratory-reared aphids by placing infested leaf sections on top of the test plants. The leaf sections were removed after 24 hr. The leaves of the intact plants were dipped into gradient solutions of the test compound and allowed to dry. Test plants were maintained under fluorescent light (24 hour photoperiod) at about 25° C. and 20-40% relative humidity. Aphid mortality on the treated plants, relative to mortality on check plants, was determined after 5 days.

[4] = tested on: Cotton Aphid (aphis gossypii, Mixed Life Stages); assay: Cotton aphid, method a (cotyledon dip); conditions: 120 h, read-out: mortality in comparison with untreated controls
Excerpt: as §1
Cotton plants at the cotyledon stage (one plant per pot) were infested by placing a heavily infested leaf from the main colony on top of each cotyledon. The aphids were allowed to transfer to the host plant overnight, and the leaf used to transfer the aphids was removed. The cotyledons were dipped in the test solution and allowed to dry. After 5 days, mortality counts were made.

CN1CCn2ncc(C(=O)Nc3cccnc3)c2C1 [Compound 13, N-(pyridine-3-yl)-5-methyl-4,5,6,7-tetrahydropyrazolo-[1,5-a]pyrazine-3-carboxamide]
mortality at 2500 µg/mL [1]: ≥ 90%
mortality at 300 ppm [2]: ≥ 75%
mortality at 300 ppm [3]: ≥ 75%
mortality at 300 ppm [4]: ≥ 75%
